Measured values as given in paper PMC11962044, “Experimental and theoretical studies on structural changes in the microtubule affinity-regulating kinase 4 (MARK4) protein induced by N-hetarenes: a new class of therapeutic candidates for Alzheimer’s disease” (Frontiers in Medicine, 2025).
Where two headings read alike, the source gives them in different places.

Columns and labels:
[1] = molecular target: T1, MARK4 (Homo sapiens, UniProt Q96L34); test: Fluorescence quenching binding assay; conditions: modified Stern-Volmer equation; excitation 280 nm; read-out: binding constant (K) (converted)
T1 sequence (Q96L34 1-752): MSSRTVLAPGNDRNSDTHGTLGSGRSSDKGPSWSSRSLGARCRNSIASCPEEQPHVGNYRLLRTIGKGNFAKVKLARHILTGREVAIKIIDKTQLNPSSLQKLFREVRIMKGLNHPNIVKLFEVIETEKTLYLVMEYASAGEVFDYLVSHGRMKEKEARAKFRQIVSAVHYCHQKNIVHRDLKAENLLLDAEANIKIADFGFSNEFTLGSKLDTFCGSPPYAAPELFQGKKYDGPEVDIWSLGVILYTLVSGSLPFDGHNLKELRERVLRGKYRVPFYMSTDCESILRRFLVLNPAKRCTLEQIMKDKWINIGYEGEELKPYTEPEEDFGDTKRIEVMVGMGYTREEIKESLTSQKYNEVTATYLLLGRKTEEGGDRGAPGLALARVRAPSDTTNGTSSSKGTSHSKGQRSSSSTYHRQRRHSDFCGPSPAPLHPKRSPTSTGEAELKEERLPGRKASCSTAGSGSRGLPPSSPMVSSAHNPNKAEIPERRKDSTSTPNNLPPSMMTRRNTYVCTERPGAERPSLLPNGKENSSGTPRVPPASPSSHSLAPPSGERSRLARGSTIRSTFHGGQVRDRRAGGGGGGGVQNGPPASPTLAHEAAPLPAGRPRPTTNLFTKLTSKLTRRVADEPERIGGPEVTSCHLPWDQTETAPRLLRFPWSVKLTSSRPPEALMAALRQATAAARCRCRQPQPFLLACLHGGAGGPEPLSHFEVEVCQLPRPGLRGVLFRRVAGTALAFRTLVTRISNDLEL
Procedure: A fluorescence-based binding assay was conducted to evaluate the binding efficiency of ligands. During the titration, the concentration of the pure MARK4 protein was kept constant while increasing concentrations of the ligand ([31]). The emission data were collected using a Jasco FP-6200 spectrofluorimeter (Japan), with a slit width of 10 nm and medium sensitivity. The samples were excited at 280 nm, and the emission spectra were recorded. Blank subtracted spectra are reported, and each measurement was performed in triplicate. For fluorescence values, we took the inner filter effect into account ([32]). The binding constant (K) was calculated using the Stern-Volmer (SV) (Equations 1, 2). (1) F0/F=1+KsvC (2) logF0−F/F=logK+nlogC Where F0 denotes the fluorescence intensity of the protein in the absence of ligands, whereas F indicates the fluorescence intensity when ligands are present. K represents the binding constant, n indicates the number of binding sites, and C refers to the concentration of the ligand.

[2] = molecular target: T1, MARK4; test: ATPase inhibition assay (Malachite green) with purified MARK4; format: biochemical; conditions: MARK4 5 μM, ATP 200 μM, ligand 0–10 μM, 1 h at 25°C, read-out: IC50 against MARK4
Procedure: Purified MARK4 was used to conduct ATPase inhibition experiment following the reported method ([18], [30]). The concentration of the purified protein used was 5 μM, the ligand concentration was 0–10 μM and the substrate (ATP) was 200 μM. The ligand concentration was increased gradually against a given concentration of MARK4. The experiment involved combining MARK4 with freshly prepared ATP, resulting in a final reaction mixture volume of 100 μL. This mixture was incubated for 1 h at 25°C. This is followed by the addition of Malachite green solution (200 μL) to quench the reaction. The samples were allowed to incubate at room temperature for color development. Finally, the reaction mixture (100 μL) was filled into 96-well plates and analyzed using a multiscan ELISA reader (λ = 620 nm). All experimental reactions were conducted in triplicate to ensure statistical reliability.

[3] = molecular target: MARK4 enzyme; conditions: cited from earlier work
[4] = read-out: IC50 MARK4 enzyme in vitro

| SMILES | IC50 [2] | other results |
| --- | --- | --- |
| Cc1ccc(-c2cc(N3CCN(C(=N)N)CC3)ncn2)cc1 [Compound 5, 4-(6-(p-Tolyl)pyrimidin-4-yl)piperazine-1-carboximidamide] | 5.35 ± 0.22 µM | Kd [1]: 6.67 µM |
| O=C(/C=C/c1ccc(O)c(O)c1)O[C@H](Cc1ccc(O)c(O)c1)C(=O)O [Rosmarinic acid] |  | IC50 ([3]; reference inhibitor of MARK4, read-out: IC50 of the reference inhibitor): ~6.2 µM |
| COc1cc2c(cc1OC)C(=O)C(CC1CCN(Cc3ccccc3)CC1)C2 (centres unmarked) [donepezil] |  | IC50 [3, 4]: 5.3 µM |
| CCN(C)C(=O)Oc1cccc([C@H](C)N(C)C)c1 [rivastigmine] |  | IC50 [3, 4]: 6.74 µM |

The next lines start with results.

| IC50 [2] | SMILES | other results |
| --- | --- | --- |
| 11.8 ± 1.19 µM | N=C(N)N1CCN(c2cc(-c3ccc(Cl)c(Cl)c3)ncn2)CC1 [Compound 6, 4-(6-(3,4-Dichlorophenyl)pyrimidin-4-yl)piperazine-1-carboximidamide] |  |
| 16.5 ± 1.71 µM | N=C(N)N1CCN(c2cc(-c3ccc(F)c(Cl)c3)ncn2)CC1 [Compound 7, 4-(6-(3-Chloro-4-fluorophenyl)pyrimidin-4-yl)piperazine-1-carboximidamide] |  |
| 15.8 ± 0.92 µM | N=C(N)N1CCN(c2cc(-c3ccc(C(F)(F)F)cc3)ncn2)CC1 [Compound 8, 4-(6-(4-(Trifluoromethyl)phenyl)pyrimidin-4-yl)piperazine-1-carboximidamide] |  |
| 6.68 ± 0.8 µM | N=C(N)N1CCN(c2cc(-c3cc4ccccc4s3)ncn2)CC1 [Compound 9, 4-(6-(benzo[b]thiophen-2-yl)pyrimidin-4-yl)piperazine-1-carboximidamide] | Kd [1]: 8.77 µM |
| 7.28 ± 0.49 µM | N=C(N)N1CCN(c2cc(-c3ccc(OC(F)(F)F)cc3)ncn2)CC1 [Compound 10, 4-(6-(4-(Trifluoromethoxy)phenyl)pyrimidin-4-yl)piperazine-1-carboximidamide] |  |
